Activity calls are given as the source filed them. How the calls were made is not given here.
System: rodent carcinogenicity bioassays, tumor incidence
Experiment: CCRIS carcinogenicity studies
Procedure, shortened: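 Archive of carcinogenicity, mutagenicity, tumor promotion and tumor inhibition results drawn from journals, NCI reports and other sources, expert-reviewed; covers 1985-2011 and is no longer updated.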

With `C=C/C=C\C1C2/C=C/CC(=O)O[C@@]34C[C@@H](C)[C@]5(O)C6C=C(C)C(=O)[C@@]6(O)CC(CO)=C[C@H]5[C@@H]3[C@@]4(C)COC(=O)C2C2C(/C=C/C=C/C=C/CCC)C12` (stereo partly specified) the carcinogen call (Species: MOUSE, Strain/Sex: CD-1/FEMALE (15), Route: DERMAL, Dose: 0, 2 UG IN 0.1 ML OF METHANOL 2/WK FOR 16 WK BEGINNING 1 WK POST CARCINOGEN DOSE THEN 5 UG 2/WK FOR 13 WK (STUDY DURATIO) was “inactive; negative”.
For `CCOS(C)(=O)=O`, the carcinogen call (Species: MOUSE, Route: INTRAPERITONEAL, Tumor Site: Type of Lesion: LUNG, KIDNEY) was “active; positive”, the carcinogen call (Species: MOUSE, Route: SUBCUTANEOUS, Tumor Site: Type of Lesion: LUNG) was “active; positive” and the carcinogen call (Species: MOUSE, Strain/Sex: ICR/FEMALE, Route: SUBCUTANEOUS, Dose: 0, 20 UMOL/MOUSE IN TRIOCTANOIN INTO LEFT FLANK, 1/WK FOR 52 WK (STUDY DURATION: 450 D), Tumor Site: Type of Lesion: THYMUS GLAND: LYMPHOMA, LUNG: ADENOMA) was “active; positive”. The carcinogen call (Species: RAT, Route: INTRAPERITONEAL, Tumor Site: Type of Lesion: LUNG, KIDNEY) was “active; positive”.
For `FCC(F)(F)F`, the carcinogen call (Species: MOUSE, Strain/Sex: B6C3F1/FEMALE, Route: INHALATION, Dose: 0, 2500, 15000, 75000 PPM SNOUT-ONLY INHALATION 1 HR/D FOR AT LEAST 104 WK (STUDY DURATION: 106 WK), Dose: 0, 2500, 15000, 75000 PPM SNOUT-ONLY INHALATION 1 HR/D FOR AT LEAST 104 WK (STUDY DURATION: 106 WK)) was “inactive; negative”, the carcinogen call (Species: MOUSE, Strain/Sex: B6C3F1/MALE, Route: INHALATION, Dose: 0, 2500, 15000, 75000 PPM SNOUT-ONLY INHALATION 1 HR/D FOR AT LEAST 104 WK (STUDY DURATION: 106 WK), Dose: 0, 2500, 15000, 75000 PPM SNOUT-ONLY INHALATION 1 HR/D FOR AT LEAST 104 WK (STUDY DURATION: 106 WK)) was “inactive; negative” and the carcinogen call (Species: RAT, Strain/Sex: ALPK:APFSD/FEMALE, Route: INHALATION, Dose: 0, 2500, 10000, 50000 PPM 6 HR/D 5 D/WK FOR 104 WK (STUDY DURATION: 104 WK), Dose: 0, 2500, 10000, 50000 PPM 6 HR/D 5 D/WK FOR 104 WK (STUDY DURATION: 104 WK)) was “inactive; negative”. The carcinogen call (Species: RAT, Strain/Sex: ALPK:APFSD/MALE, Route: INHALATION, Dose: 0, 2500, 10000, 50000 PPM 6 HR/D 5 D/WK FOR 104 WK (STUDY DURATION: 104 WK), Dose: 0, 2500, 10000, 50000 PPM 6 HR/D 5 D/WK FOR 104 WK (STUDY DURATION: 104 WK), Tumor Site: Type of Lesion: TESTES: LEYDIG CELL ADENOMA) was “active; positive”, the carcinogen call (Species: RAT, Strain/Sex: WISTAR/FEMALE, Route: INHALATION, Dose: 0, 2500, 10000, 50000 PPM SNOUT-ONLY INHALATION 1 HR/D FOR AT LEAST 108 WK (STUDY DURATION: 110 WK), Dose: 0, 2500, 10000, 50000 PPM SNOUT-ONLY INHALATION 1 HR/D FOR AT LEAST 108 WK (STUDY DURATION: 110 WK)) was “inactive; negative” and the carcinogen call (Species: RAT, Strain/Sex: WISTAR/MALE, Route: INHALATION, Dose: 0, 2500, 10000, 50000 PPM SNOUT-ONLY INHALATION 1 HR/D FOR AT LEAST 108 WK (STUDY DURATION: 110 WK), Dose: 0, 2500, 10000, 50000 PPM SNOUT-ONLY INHALATION 1 HR/D FOR AT LEAST 108 WK (STUDY DURATION: 110 WK)) was “inactive; negative”.
For `C/C=C/C=O`, the carcinogen call (Species: MOUSE, Strain/Sex: B6C3F1/FEMALE, Route: INTRAPERITONEAL, Dose: 0, 1500 NMOL TOTAL DOSE, 1/3 AND 2/3 OF THE TOTAL DOSE ADMINISTERED AT 8 AND 15 DAYS OF AGE RESPECTIVELY, ANIMALS TERMIN) was “inactive; negative”, the carcinogen call (Species: MOUSE, Strain/Sex: B6C3F1/FEMALE, Route: INTRAPERITONEAL, Dose: 0, 3000 NMOL TOTAL DOSE, 1/3 AND 2/3 OF THE TOTAL DOSE ADMINISTERED AT 8 AND 15 DAYS OF AGE RESPECTIVELY, ANIMALS TERMIN) was “inactive; negative” and the carcinogen call (Species: MOUSE, Strain/Sex: B6C3F1/MALE, Route: INTRAPERITONEAL, Dose: 0, 1500 NMOL TOTAL DOSE, 1/3 AND 2/3 OF THE TOTAL DOSE ADMINISTERED AT 8 AND 15 DAYS OF AGE RESPECTIVELY, ANIMALS TERMIN) was “inactive; negative”. The carcinogen call (Species: MOUSE, Strain/Sex: B6C3F1/MALE, Route: INTRAPERITONEAL, Dose: 0, 3000 NMOL TOTAL DOSE, 1/3 AND 2/3 OF THE TOTAL DOSE ADMINISTERED AT 8 AND 15 DAYS OF AGE RESPECTIVELY, ANIMALS TERMIN) was “inactive; negative”.
`O=c1c(O)c(-c2ccc(O)c(O)c2)oc2cc(O)cc(O)c12` was tested, and the carcinogen call (Species: RAT, Strain/Sex: F344/FEMALE, Route: ORAL, Dose: 0, 0.1, 0.2% IN DIET FOR DURATION OF STUDY (STUDY DURATION: 64 WK), Dose: 0, 0.1, 0.2% IN DIET FOR DURATION OF STUDY (STUDY DURATION: 64 WK)) was “inactive; negative”, the carcinogen call (Species: RAT, Strain/Sex: F344/FEMALE, Route: ORAL, Dose: 0, 1.25, 5.0% IN DIET FOR 104 WK (STUDY DURATION: 112 WK), Dose: 0, 1.25, 5.0% IN DIET FOR 104 WK (STUDY DURATION: 112 WK)) was “inactive; negative” and the carcinogen call (Species: RAT, Strain/Sex: F344/FEMALE, Route: ORAL, Dose: 0, 1,000, 10,000, 40,000 PPM IN DIET FOR 104 WK (STUDY DURATION: 104 WK), Dose: 0, 1,000, 10,000, 40,000 PPM IN DIET FOR 104 WK (STUDY DURATION: 104 WK)) was “inactive; negative”. The carcinogen call (Species: RAT, Strain/Sex: F344/MALE, Route: ORAL, Dose: 0, 0.1, 0.2% IN DIET FOR DURATION OF STUDY (STUDY DURATION: 64 WK), Dose: 0, 0.1, 0.2% IN DIET FOR DURATION OF STUDY (STUDY DURATION: 64 WK)) was “inactive; negative”, the carcinogen call (Species: RAT, Strain/Sex: F344/MALE, Route: ORAL, Dose: 0, 1.25, 5.0% IN DIET FOR 104 WK (STUDY DURATION: 112 WK), Dose: 0, 1.25, 5.0% IN DIET FOR 104 WK (STUDY DURATION: 112 WK)) was “inactive; negative” and the carcinogen call (Species: RAT, Strain/Sex: F344/MALE, Route: ORAL, Dose: 0, 1,000, 10,000, 40,000 PPM IN DIET FOR 104 WK (STUDY DURATION: 104 WK), Dose: 0, 1,000, 10,000, 40,000 PPM IN DIET FOR 104 WK (STUDY DURATION: 104 WK), Tumor Site: Type of Lesion: KIDNEY (RENAL TUBULE): ADENOMA) was “active; positive”.
With `NS(=O)(=O)c1cc(C(=O)O)c(NCc2ccco2)cc1Cl` the carcinogen call (Species: MOUSE, Strain/Sex: B6C3F1/FEMALE, Route: ORAL, Dose: 0, 700, 1400 PPM IN FEED FOR 104 WK (STUDY DURATION: 107 WK), Dose: 0, 700, 1400 PPM IN FEED FOR 104 WK (STUDY DURATION: 107 WK), Tumor Site: Type of Lesion: MAMMARY GLAND: MIXED TUMOR, MALIGNANT, MAMMARY GLAND: MIXED TUMOR, MALIGNANT OR ACINAR CELL CARCINOMA) was “active; positive”, the carcinogen call (Species: MOUSE, Strain/Sex: B6C3F1/MALE, Route: ORAL, Dose: 0, 700, 1400 PPM IN FEED FOR 104 WK (STUDY DURATION: 107 WK), Dose: 0, 700, 1400 PPM IN FEED FOR 104 WK (STUDY DURATION: 107 WK)) was “inactive; negative” and the carcinogen call (Species: RAT, Strain/Sex: F344/FEMALE, Route: ORAL, Dose: 0, 350, 700 PPM IN FEED FOR 103 WK (STUDY DURATION: 106 WK), Dose: 0, 350, 700 PPM IN FEED FOR 103 WK (STUDY DURATION: 106 WK)) was “inactive; negative”. The carcinogen call (Species: RAT, Strain/Sex: F344/MALE, Route: ORAL, Dose: 0, 350, 700 PPM IN FEED FOR 103 WK (STUDY DURATION: 106 WK), Dose: 0, 350, 700 PPM IN FEED FOR 103 WK (STUDY DURATION: 106 WK), Tumor Site: Type of Lesion: KIDNEY: RENAL TUBULE CELL ADENOMA OR ADENOCARCINOMA, BRAIN: MENINGIOMA) was “equivocal”.
For `CC[N+]([O-])=NC`, the carcinogen call (Species: RAT, Strain/Sex: F344/MALE, Route: ORAL, Dose: 0, 12, 48 MG/ML IN A NEUTRAL DEIONIZED DRINKING WATER SOLUTION 5 D/WK FOR 30 WK (TOTAL DOSE 36; 115 MG) (STUDY DURATION:, Dose: 0, 12, 48 MG/ML IN A NEUTRAL DEIONIZED DRINKING WATER SOLUTION 5 D/WK FOR 30 WK (TOTAL DOSE 36; 115 MG) (STUDY DURATION:, Tumor Site: Type of Lesion: LIVER: CARCINOMA, HEMANGIOSARCOMA, COLON: ADENOCARCINOMA, ADENOMA, ILEUM: TUMOR, Tumor Site: Type of Lesion: LIVER: CARCINOMA, HEMANGIOSARCOMA, COLON: ADENOCARCINOMA, ADENOMA, ILEUM: TUMOR) was “active; positive”.

Source: PubChem BioAssay AID1259411 (Chemical Carcinogenesis Research Information System (CCRIS), 2018)
